Test results published in BindingDB's records for patent US11739090 (Jumbo Drug Bank, 2023).

Key:
[1] = biological target: Tyrosine-protein kinase BTK (Homo sapiens, UniProt Q06187); assay: BTK Kinase Assay
Procedure: (§1) 1. Reaction conditions: buffer conditions: 20 mM HEPES (pH 7.5), 10 mM MgCl2, 1 mM EGTA, 0.02% Brij35, 0.02 mg/mL BSA, 0.1 mm Na3VO4, 2 mm DTT, 1% DMSO.2. Reaction procedure:2.1. Preparing an indicator substrate in a freshly prepared reaction buffer 2.2. Delivering the desired cofactor to the above substrate solution 2.3. Delivering the indicated kinase to the substrate solution and gently mixing same 2.4. Delivering the compounds in DMSO to the kinase reaction mixture using acoustic technology (Echo550) 2.5. Initiating the reaction (final concentration of ATP: 5 μM) by delivering 33P-ATP (final specific activity: 0.01 μci/μL) to the reaction mixture 2.6. Incubating the kinase reaction at room temperature for 120 minutes 2.7. Recording the reaction on P81 ion exchange paper (Whatman #3698-915) 2.8. Washing the filter widely with 0.75% phosphoric acid 2.9. Measuring the radioactive phosphorylated substrate remaining on the filter paper. 3.Data analysis: the kinase activity data is expressed as the percentage of the remaining kinase activity in a test sample compared to a reaction with a carrier (dimethyl sulfoxide), and IC50 values and curve fitting are obtained using Prism4 software (GraphPad).

[2] = biological target: Epidermal growth factor receptor (Homo sapiens, UniProt P00533); assay: EGFR, ITK and TEC Kinase Assay
Procedure: as §1, with “DMSO. 2.” for “DMSO.2.”, “ATP: 2 μM,” for “ATP:”, “μM and 5 μM respectively)” for “μM)”, “3. Data” for “3.Data”

[3] = biological target: T1, Tyrosine-protein kinase ITK/TSK (Homo sapiens, UniProt Q08881)
T1 sequence (Q08881 whole entry): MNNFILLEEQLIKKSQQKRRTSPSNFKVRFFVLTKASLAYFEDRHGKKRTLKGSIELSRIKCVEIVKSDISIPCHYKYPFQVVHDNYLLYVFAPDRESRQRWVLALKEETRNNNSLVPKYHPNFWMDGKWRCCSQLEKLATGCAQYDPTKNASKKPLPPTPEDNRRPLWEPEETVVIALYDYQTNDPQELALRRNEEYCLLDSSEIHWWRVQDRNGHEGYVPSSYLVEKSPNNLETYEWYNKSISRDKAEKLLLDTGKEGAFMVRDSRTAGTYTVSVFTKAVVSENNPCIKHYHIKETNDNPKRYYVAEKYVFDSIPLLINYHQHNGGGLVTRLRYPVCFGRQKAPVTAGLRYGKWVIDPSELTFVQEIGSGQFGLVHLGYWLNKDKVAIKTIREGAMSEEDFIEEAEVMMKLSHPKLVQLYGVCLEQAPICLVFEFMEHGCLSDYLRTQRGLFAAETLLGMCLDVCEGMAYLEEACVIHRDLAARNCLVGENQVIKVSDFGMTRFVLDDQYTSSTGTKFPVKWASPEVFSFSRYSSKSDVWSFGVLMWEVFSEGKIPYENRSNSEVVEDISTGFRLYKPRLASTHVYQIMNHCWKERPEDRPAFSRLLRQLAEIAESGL

[4] = biological target: T2, Tyrosine-protein kinase Tec (Homo sapiens, UniProt P42680)
T2 sequence (P42680 whole entry): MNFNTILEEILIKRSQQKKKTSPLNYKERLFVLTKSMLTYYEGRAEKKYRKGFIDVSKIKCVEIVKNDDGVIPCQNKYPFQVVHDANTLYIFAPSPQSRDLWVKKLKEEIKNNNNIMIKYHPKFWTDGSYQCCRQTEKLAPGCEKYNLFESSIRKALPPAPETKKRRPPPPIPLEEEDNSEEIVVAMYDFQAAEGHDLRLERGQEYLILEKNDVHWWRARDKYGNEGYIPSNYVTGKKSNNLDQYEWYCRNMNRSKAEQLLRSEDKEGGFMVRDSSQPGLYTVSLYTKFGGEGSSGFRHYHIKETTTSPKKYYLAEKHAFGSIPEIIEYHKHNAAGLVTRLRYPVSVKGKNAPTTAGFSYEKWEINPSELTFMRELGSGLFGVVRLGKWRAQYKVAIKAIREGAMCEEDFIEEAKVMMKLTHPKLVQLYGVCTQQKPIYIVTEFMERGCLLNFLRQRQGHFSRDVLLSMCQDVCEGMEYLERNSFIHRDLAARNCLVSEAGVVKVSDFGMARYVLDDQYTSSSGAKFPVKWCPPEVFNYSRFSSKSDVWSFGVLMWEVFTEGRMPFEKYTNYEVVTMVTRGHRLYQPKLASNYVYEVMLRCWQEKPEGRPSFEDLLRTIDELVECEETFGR

Tyrosine-protein kinase BTK, sequence (Q06187 whole entry): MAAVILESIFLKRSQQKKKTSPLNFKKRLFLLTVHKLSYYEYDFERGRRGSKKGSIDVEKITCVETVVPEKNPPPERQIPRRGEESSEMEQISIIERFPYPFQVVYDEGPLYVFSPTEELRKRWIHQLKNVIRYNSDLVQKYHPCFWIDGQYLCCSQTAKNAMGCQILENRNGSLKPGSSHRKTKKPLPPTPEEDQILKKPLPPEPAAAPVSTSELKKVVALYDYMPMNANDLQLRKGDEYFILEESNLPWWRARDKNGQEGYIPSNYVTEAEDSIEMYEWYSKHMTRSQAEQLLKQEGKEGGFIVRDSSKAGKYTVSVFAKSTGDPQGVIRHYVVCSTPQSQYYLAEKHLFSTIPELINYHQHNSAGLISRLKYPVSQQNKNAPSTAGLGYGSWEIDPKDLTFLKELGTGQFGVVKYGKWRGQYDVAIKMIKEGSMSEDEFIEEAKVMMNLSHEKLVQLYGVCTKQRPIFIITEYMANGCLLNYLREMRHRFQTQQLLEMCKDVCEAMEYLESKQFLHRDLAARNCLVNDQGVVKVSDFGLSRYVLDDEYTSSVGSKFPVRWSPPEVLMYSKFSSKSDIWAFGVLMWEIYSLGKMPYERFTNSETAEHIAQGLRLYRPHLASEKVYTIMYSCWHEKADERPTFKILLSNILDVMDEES
Epidermal growth factor receptor, sequence (P00533 whole entry): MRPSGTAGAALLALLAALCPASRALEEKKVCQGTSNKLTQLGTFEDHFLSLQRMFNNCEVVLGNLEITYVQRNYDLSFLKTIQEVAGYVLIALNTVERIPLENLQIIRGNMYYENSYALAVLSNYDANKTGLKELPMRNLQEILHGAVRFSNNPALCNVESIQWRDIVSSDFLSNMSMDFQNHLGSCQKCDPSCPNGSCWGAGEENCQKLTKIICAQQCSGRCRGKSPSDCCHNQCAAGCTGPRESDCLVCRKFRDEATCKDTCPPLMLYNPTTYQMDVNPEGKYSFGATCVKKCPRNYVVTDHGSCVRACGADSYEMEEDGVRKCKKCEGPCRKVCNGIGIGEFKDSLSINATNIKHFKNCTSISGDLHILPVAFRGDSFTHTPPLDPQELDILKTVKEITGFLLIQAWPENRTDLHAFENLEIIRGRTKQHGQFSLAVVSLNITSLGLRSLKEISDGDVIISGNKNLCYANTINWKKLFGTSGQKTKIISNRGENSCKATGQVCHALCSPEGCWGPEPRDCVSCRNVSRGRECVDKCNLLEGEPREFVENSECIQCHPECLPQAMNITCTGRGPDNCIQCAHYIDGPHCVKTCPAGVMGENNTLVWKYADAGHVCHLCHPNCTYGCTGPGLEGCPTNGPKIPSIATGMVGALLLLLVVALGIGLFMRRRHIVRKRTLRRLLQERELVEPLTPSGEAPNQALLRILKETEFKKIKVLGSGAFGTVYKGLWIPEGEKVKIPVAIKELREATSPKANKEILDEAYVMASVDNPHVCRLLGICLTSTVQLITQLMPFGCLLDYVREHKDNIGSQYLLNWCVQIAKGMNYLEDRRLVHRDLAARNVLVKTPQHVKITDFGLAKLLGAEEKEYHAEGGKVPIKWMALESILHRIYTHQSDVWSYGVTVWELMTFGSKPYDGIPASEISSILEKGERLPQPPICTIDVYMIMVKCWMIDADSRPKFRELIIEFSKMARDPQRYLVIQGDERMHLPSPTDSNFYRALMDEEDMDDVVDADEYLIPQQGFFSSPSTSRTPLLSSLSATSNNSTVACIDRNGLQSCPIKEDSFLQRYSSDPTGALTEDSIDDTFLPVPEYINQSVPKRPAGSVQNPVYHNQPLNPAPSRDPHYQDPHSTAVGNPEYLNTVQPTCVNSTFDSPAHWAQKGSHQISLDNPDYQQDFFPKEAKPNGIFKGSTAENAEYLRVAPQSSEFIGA

Row | IC50 [1] | IC50 [2] | IC50 [3] | IC50 [4] | SMILES
1 | 0.73 nM | 14.5 nM | 42.2 nM | 3.39 nM | C=CC(=O)N1CCC[C@@H](c2nn(-c3ccc(Oc4ccccc4)cc3)c3c(N)nccc23)C1 [US11739090, Compound 7A]
2 | 0.93 nM | 33.3 nM | 1450 nM | 3.74 nM | C=CC(=O)N1CCC[C@H](c2nn(-c3ccc(Oc4ccccc4)cc3)c3c(N)nccc23)C1 [US11739090, Compound 7B]
